Reference: article PMC3578121 (Journal of molecular biology, 2012)
“And” between values parts separate entries of the source, which are not always exact repeats. Equal values may be shown once. Read-outs that look alike come from different tables or passages of the source.

What was measured:
[1] = target: VCCβ-prism (isolated β-prism domain of Vibrio cholerae cytolysin) (Vibrio cholerae serotype O1, UniProt P09545); test: biochemical; type: binding
VCCWT = type: binding, Vibrio cholerae
VCC = conditions: cited from earlier work
[2] = test system: rabbit whole blood lysis by wild-type VCC
D617K mutant of VCC = type: binding, Vibrio cholerae
VCCβ-prism = VCCβ-prism (Vibrio cholerae serotype O1, UniProt P09545); type: binding
Sequence of VCCβ-prism (P09545 611-741 limits assumed): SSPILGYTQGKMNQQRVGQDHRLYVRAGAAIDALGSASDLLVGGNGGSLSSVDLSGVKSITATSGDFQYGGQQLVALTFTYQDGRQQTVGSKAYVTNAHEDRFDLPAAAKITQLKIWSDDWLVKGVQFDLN

Sequence of VCCβ-prism (isolated β-prism domain of Vibrio cholerae cytolysin) (P09545 611-741 limits assumed): as above

For OC[C@H]1OC(O)[C@H](O)[C@@H](O)[C@@H]1O (stereo partly drawn) [Glucose], the Kd [1] was 12 ± 0.6 mM and the ΔG [1] was -2.679 kcal/mol.

For CO[C@H]1O[C@H](CO)[C@H](O)[C@H](O)[C@H]1O [Me-α-Galactose, Me-α-D-galactose], the “Binding detected by ITC” value [1] was “did not bind”.

With galactose-α-1,4-galactose [galabiose] the “Average fluorescence of VCC binding to glycan” value (“Average fluorescence” below) (VCCWT) was no more than 100 RFUs.

In the case of lacto-N-biose, the “Average fluorescence” value (VCCWT) is reported as no more than 100 RFUs.

With CO[C@@H]1O[C@H](CO)[C@@H](O)[C@H](O)[C@@H]1O [Me-β-D-mannose] the “Binding detected by ITC” value [1] was “loss of binding”.

For fetuin, the “Inhibition of VCC activity” value (VCC) is listed as “inhibited”.

With “galactose-β-1,4(fucose-α-1,3)N-acetyl glucosamine [Lewis X]” the “Average fluorescence” value (VCCWT) was no more than 100 RFUs.

For C[C@H](O)[C@@H](O)[C@@H](O)[C@H](O)C=O [Fucose, L-fucose], the “Binding detected by ITC” value [1] was “did not exhibit measurable binding”.

With COC1OC(CO)C(O)C(O)C1O [Me-β-Galactose, Me-β-D-galactose] the “Binding detected by ITC” value [1] was “did not bind”.

With COC1OC(CO)C(O)C(O)C1O [Me-α-Glucose, Me-α-D-glucose] the Kd [1] was 7.1 mM and 7.09 mM and the ΔG [1] was -2.944 kcal/mol.

In the case of COC1OC(CO)C(O)C(O)C1O (stereo not drawn) [Me-α-Mannose, methyl-α-mannose], the “Effect on half-life (t1/2) of rabbit blood hemolysis by VCC” value [2] is reported as “no effect”, the “Increase in affinity of Me-α-D-mannose over D-mannose” value [1] is reported as “roughly five-fold increase” and the Kd [1] is reported as 3.24 ± 0.1 mM. For the same molecule, the ΔG [1] was -3.424 kcal/mol and the “Binding detected by ITC” value (D617K mutant of VCC) was “could not detect measurable binding”.

OC[C@H]1OC(O)[C@@H](O)[C@@H](O)[C@@H]1O (stereo partly drawn) [Mannose, D-mannose] showed a Kd [1] of 14.8 ± 1.18 mM and a ΔG [1] of -2.456 kcal/mol.

In the case of COC1OC(CO)C(O)C(O)C1O [Me-β-Glucose, Me-β-D-glucose], the “Binding detected by ITC” value [1] is reported as “did not bind”.

With O=C[C@H](O)[C@@H](O)[C@H](O[C@@H]1O[C@H](CO)[C@@H](O)[C@H](O)[C@H]1O)[C@H](O)CO [cellobiose, glucose-β1,4-glucose] the “Binding detected by ITC” value [1] was “did not bind”.

With CC(=O)N[C@@H]1[C@@H](O)[C@H](O)[C@@H](CO)O[C@H]1O [N-acetylglucosamine, N-acetyl-D-glucosamine] the “Binding detected by ITC” value [1] was “did not exhibit measurable binding”.

In the case of “GlcNAcβ1-2Manα1-6(GlcNAcβ1-2Manα1-3)Manβ1-4GlcNAcβ1-4GlcNAc [NGA2]”, the association rate ka (VCCβ-prism) is reported as 37,000 M^−1s^−1, the dissociation rate kd (VCCβ-prism) is reported as 0.040 s⁻¹ and the Kd (VCCβ-prism; read-out: Affinity (approximate summary)) is reported as roughly 0.0001 mM. For the same molecule, the Kd (VCCβ-prism; read-out: KD (equilibrium analysis)) was 0.000183 mM and the Kd (VCCβ-prism; read-out: KD (kinetic fit)) was 0.000108 mM.

With OC[C@H]1O[C@H](O[C@H]2[C@H](O)[C@@H](O)C(O)O[C@@H]2CO)[C@H](O)[C@@H](O)[C@@H]1O (mixture of isomers) [Maltose, glucose-α1,4-glucose] the “KD of maltose relative to KD of Me-α-mannose” value [1] was 10 fold, the Kd [1] was 30.9 ± 3.17 mM and the ΔG [1] was -2.09 kcal/mol.
